Results published in article PMC9676650, “Binding pocket stabilization by high-throughput screening of yeast display libraries” (Frontiers in Molecular Biosciences, 2022).
Residue numbers refer to the chain shown, from its start. Several values for one entry are separate records, joined by “and”; a condition that tells them apart may be missing. Equal values may be shown once.

Tests used:
FKBP51 variant G64A = target: T1, FKBP51 variant G64A (Homo sapiens, UniProt Q13451, G64A); assay: Fluorescence polarization tracer binding, FKBP51 G64A; details: for Fold change in Kd improvement: FKBP51 G64A compared to WT; for Kd: FKBP51 G64A, 0.5 nM SAFit-FL, 5 nM Mcyc-TA or 1 nM FK [431]-TA, 30 min room temperature
T1 construct: made in house; host or cells: E. coli BL21 (DE3)
T1 sequence (Q13451 1-140 G64A): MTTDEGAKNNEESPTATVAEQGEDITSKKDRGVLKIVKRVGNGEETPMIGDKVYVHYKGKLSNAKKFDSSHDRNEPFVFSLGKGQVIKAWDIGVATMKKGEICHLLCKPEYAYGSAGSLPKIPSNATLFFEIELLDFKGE
Description: (§1) All ligands and tracers used for fluorescence polarization assays had purities of more than 95%. The following ligands and tracers were used for fluorescence polarization and FACS screening experiments: •SAFit-FL tracer (1): Fluorescein conjugated analog of the iFit ligand class. •Mcyc-TA tracer (2): TAMRA conjugated macrocyclic ligand (5). •FK [431]-TA tracer (3): TAMRA conjugated FK [431] ligand (6). •SAFit1 ligand (4): analog of the iFit ligand class. •macrocyclic ligand (5):macrocyclic analog of the SAFit class ligands. •FK [431] ligand (6):bicyclic analog of the immunosuppressive drug FK506
(§2) The binding of the generated FKBP51 variants to different conformation-sensitive FKBP ligands was investigated by fluorescence polarization assays. Therefore, a serial dilution of the respective FKBP51 variant in assay buffer (20 mM HEPES pH 8.0, 150 mM NaCl, 0.015% Triton X-100) was placed in a 384-well assay plate and a defined amount of the respective fluorescent tracer (0.5 nM of the SAFit based tracer SAFit-FL (1), 5 nM of the macrocyclic tracer Mcyc-TA 2) or 1 nM of the FK [431]-TA 3) in assay buffer was added to the protein buffer mixture. After incubation for 30 min at room temperature, the fluorescence polarization was measured with a plate reader. The obtained results for each 3 independent experiments were normalized with respect to the maximal binding signal and fitted to a one-site binding model as described by [Wang et al., 1992] yielding the respective binding constants. tracer bound=100/Lt×0.5×(Rt+Lt+KD−(Rt+Lt+KD)^2−4×LtRt) With L t , total concentration of the tracer, R t , total concentration of the receptor and K D binding constant of the complex RL.

FKBP51 variant G64D = target: T2, FKBP51 variant G64D (Homo sapiens, UniProt Q13451, G64D); assay: Fluorescence polarization tracer binding, FKBP51 G64D; details: for Fold change in Kd improvement: FKBP51 G64D compared to WT; for Kd: FKBP51 G64D, 0.5 nM SAFit-FL, 5 nM Mcyc-TA or 1 nM FK [431]-TA, 30 min room temperature
T2 construct: made in house; host or cells: E. coli BL21 (DE3)
T2 sequence (Q13451 1-140 G64D): T1 sequence (Q13451 1-140 G64A) with A64D
Description: as §1, §2

FKBP51 variant G64E = target: T3, FKBP51 variant G64E (Homo sapiens, UniProt Q13451, G64E); assay: Fluorescence polarization tracer binding, FKBP51 G64E; details: for Fold change in Kd improvement: FKBP51 G64E compared to WT; for Kd: FKBP51 G64E, 0.5 nM SAFit-FL, 5 nM Mcyc-TA or 1 nM FK [431]-TA, 30 min room temperature
T3 construct: made in house; host or cells: E. coli BL21 (DE3)
T3 sequence (Q13451 1-140 G64E): T1 sequence (Q13451 1-140 G64A) with A64E
Description: as §1, §2

FKBP51 variant G64S = target: T4, FKBP51 variant G64S (Homo sapiens, UniProt Q13451, G64S); assay: Fluorescence polarization tracer binding, FKBP51 G64S; details: for Kd: FKBP51 G64S, 0.5 nM SAFit-FL, 5 nM Mcyc-TA or 1 nM FK [431]-TA, 30 min room temperature
T4 construct: made in house; host or cells: E. coli BL21 (DE3)
T4 sequence (Q13451 1-140 G64S): T1 sequence (Q13451 1-140 G64A) with A64S
Description: as §1, §2

FKBP51 variant F67R = target: T5, FKBP51 variant F67R (Homo sapiens, UniProt Q13451, F67R); assay: Fluorescence polarization tracer binding, FKBP51 F67R; details: for Fold change in Kd improvement: FKBP51 F67R compared to WT; for Kd: FKBP51 F67R, 0.5 nM SAFit-FL, 5 nM Mcyc-TA or 1 nM FK [431]-TA, 30 min room temperature
T5 construct: made in house; host or cells: E. coli BL21 (DE3)
T5 sequence (Q13451 1-140 F67R): T1 sequence (Q13451 1-140 G64A) with A64G, F67R
Description: as §1, §2

FKBP51 variant F67S = target: T6, FKBP51 variant F67S (Homo sapiens, UniProt Q13451, F67S); assay: Fluorescence polarization tracer binding, FKBP51 F67S; details: for Fold change in Kd improvement: FKBP51 F67S compared to WT; for Kd: FKBP51 F67S, 0.5 nM SAFit-FL, 5 nM Mcyc-TA or 1 nM FK [431]-TA, 30 min room temperature
T6 construct: made in house; host or cells: E. coli BL21 (DE3)
T6 sequence (Q13451 1-140 F67S): T1 sequence (Q13451 1-140 G64A) with A64G, F67S
Description: as §1, §2

FKBP51 variant D68N = target: T7, FKBP51 variant D68N (Homo sapiens, UniProt Q13451, D68N); assay: Fluorescence polarization tracer binding, FKBP51 D68N; details: for Fold change in Kd improvement: FKBP51 D68N compared to WT; for Kd: FKBP51 D68N, 0.5 nM SAFit-FL, 5 nM Mcyc-TA or 1 nM FK [431]-TA, 30 min room temperature
T7 construct: made in house; host or cells: E. coli BL21 (DE3)
T7 sequence (Q13451 1-140 D68N): T1 sequence (Q13451 1-140 G64A) with A64G, D68N
Description: as §1, §2

FKBP51 variant D68Y = target: T8, FKBP51 variant D68Y (Homo sapiens, UniProt Q13451, D68Y); assay: Fluorescence polarization tracer binding, FKBP51 D68Y; details: for Fold change in Kd improvement: FKBP51 D68Y compared to WT; for Kd: FKBP51 D68Y, 0.5 nM SAFit-FL, 5 nM Mcyc-TA or 1 nM FK [431]-TA, 30 min room temperature
T8 construct: made in house; host or cells: E. coli BL21 (DE3)
T8 sequence (Q13451 1-140 D68Y): T1 sequence (Q13451 1-140 G64A) with A64G, D68Y
Description: as §1, §2

| Fold change in Kd improvement (FKBP51 variant G64S; FKBP51 G64S compared to WT) | SMILES | Fold change in Kd improvement (FKBP51 variant G64A) | Kd (FKBP51 variant G64A) | Fold change in Kd improvement (FKBP51 variant G64D) | Kd (FKBP51 variant G64D) | Fold change in Kd improvement (FKBP51 variant G64E) | Kd (FKBP51 variant G64E) | Kd (FKBP51 variant G64S) | Fold change in Kd improvement (FKBP51 variant F67R) | Kd (FKBP51 variant F67R) | Fold change in Kd improvement (FKBP51 variant F67S) | Kd (FKBP51 variant F67S) | Fold change in Kd improvement (FKBP51 variant D68N) | Kd (FKBP51 variant D68N) | Fold change in Kd improvement (FKBP51 variant D68Y) | Fold change in Kd improvement (FKBP51 variant D68Y; listed as 3) | Kd (FKBP51 variant D68Y) |
| --- | --- | --- | --- | --- | --- | --- | --- | --- | --- | --- | --- | --- | --- | --- | --- | --- | --- |
|  | CN(C)c1ccc2c(-c3cc(C(=O)NCCn4cc([C@H]5CN(Cc6ccccn6)C(=O)[C@@H]6CCC[C@H]5N6S(=O)(=O)c5cc(Cl)cc(Cl)c5)nn4)ccc3C(=O)O)c3ccc(=[N+](C)C)cc-3oc2c1 [FK [431]-TA] | 0.084 fold | 61 ± 2 nM | 0.300 fold | 17 ± 1 nM | 0.268 fold | 19 ± 1 nM | 11 ± 1 nM | 0.016 fold | 312 ± 14 nM | 0.004 fold | 1240 ± 60 nM | 0.035 fold | 146 ± 6 nM | 0.134 fold | no improvement | 38 ± 2 nM |
| 34 fold and 34.29 fold | COc1ccc(CC[C@H]2OC(=O)[C@@H]3CCCCN3C(=O)[C@@H](C3CCCCC3)NC(=O)C(C)(C)NC(=O)COc3cc(OCCNC(=O)c4ccc(C(=O)O)c(-c5c6ccc(=[N+](C)C)cc-6oc6cc(N(C)C)ccc56)c4)cc2c3)cc1OC [Mcyc-TA] | 5.71 fold | 4.2 ± 0.5 nM | 2.76 fold | 8.7 ± 1 nM | 7.27 fold | 3.3 ± 0.3 nM | 0.7 ± 0.2 nM | 1.00 fold | 24 ± 3 nM | 1.14 fold | 21 ± 2 nM | 4.00 fold | 6 ± 1 nM | 34 fold and 34.29 fold |  | 0.7 ± 0.1 nM |
